Assay results from patent publication US20250049036A1 (priority 2021, published 2025).

Tests used:
[1] = test system: Pyricularia oryzae; test: microbe, parasite or virus in culture; assay type: cell-based; conditions: 168 h, read-out: control compared to the untreated check
[2] = test system: Botrytis cinerea; test: Botrytis cinerea (gray mold) mycelial radial growth on potato dextrose agar; assay type: cell-based; conditions: 168 h, 22° C., seven days, read-out: control compared to the untreated check
In short: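 Compounds in 0.3% DMSO were mixed into potato dextrose agar, and plates were seeded with 5 mm mycelial discs from actively growing virulent culture. After seven days at 22 °C and 90% relative humidity, radial growth was measured relative to untreated control.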

[3] = test system: Alternaria solani; test: Alternaria solani (early blight of tomato/potato) mycelial radial growth on potato dextrose agar; assay type: cell-based; conditions: 168 h, 25° C., seven days, read-out: control compared to the untreated check
Experimental: (§1) The compounds were dissolved in 0.3% dimethyl sulfoxide and then added to potato dextrose agar medium just prior to dispensing it into petri dishes. 5 mL medium, with the compound in the desired concentration, was dispensed into 60 mm sterile petri-plates. After solidification, each plate was seeded with a 5 mm size mycelial disc taken from the periphery of an actively growing virulent culture plate. The plates were incubated in growth chambers at 25° C. temperature and 60% relative humidity for seven days and the radial growth was measured and compared to the one of the untreated control.

[4] = test system: Corynespora cassiicola; test: Corynespora cassiicola (leaf spot of tomato) mycelial radial growth on potato dextrose agar; assay type: cell-based; conditions: 168 h, 25° C., seven days, read-out: control compared to the untreated check
Experimental: as §1, with “70%” for “60%”

[5] = test system: Phytophthora infestans; test: microbe, parasite or virus in culture; assay type: cell-based; conditions: 168 h, read-out: control compared to the untreated check
[6] = test system: Parastagonospora nodorum; test: Parastagonospora nodorum (PARANO) spore growth inhibition in liquid medium, 96-well microtiter plate, OD 600; assay type: cell-based; conditions: spore suspension in PDB liquid medium, 18° C., 5-6 days, OD at 600, read-out: control compared to the untreated check
In short: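 Read-out is percent growth inhibition from OD at 600 after 5-6 days at 18° C. Compounds, dissolved in DMSO, were diluted in potato dextrose broth and combined in equal volume with a 10^5 spores/ml suspension of PARANO.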

[7] = test system: Botrytis cinerea; test: Botrytis cinerea liq. (BOTRCI) spore growth inhibition in liquid medium, 96-well microtiter plate, OD 405 nm; assay type: cell-based; conditions: spore suspension in YBA liquid medium, 22° C., 5-6 days, OD at 405 nm, read-out: control compared to the untreated check
In short: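 Spore suspension of B. cinerea (10^4 spores/ml) in YBA liquid medium mixed 1:1 with compound diluted from DMSO. Incubated at 22° C. for 5-6 days. Growth read as OD 405 nm; percent inhibition derived from treatment, untreated-control and blank readings.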

[8] = test system: Colletotrichum capsici; test: Colletotrichum capsici (anthracnose) mycelial radial growth on potato dextrose agar; assay type: cell-based; conditions: Colletotrichum truncatum, 168 h, 25° C., seven days, read-out: control compared to the untreated check
In short: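 Compounds in 0.3% DMSO were mixed into potato dextrose agar, and each plate was seeded with a 5 mm mycelial disc from an actively growing culture. Plates were incubated at 25° C and 60% relative humidity for seven days. Radial growth was compared with untreated control.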

[9] = test system: Phakopsora pachyrhizi; test: Phakopsora pachyrhizi test on soybean, preventive, greenhouse; assay type: in vivo; conditions: preventive spray on soybean, inoculated one day after treatment, read-out: control (efficacy, disease severity) compared to the untreated check
In short: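 Preventive protocol: plants inoculated with a 2×10^5 P. pachyrhizi conidial suspension one day after spray application at the stated rate, then incubated at 22-24 °C and 80-90% RH. Compound was applied from 2% DMSO/acetone diluted in emulsified water.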

[10] = test system: Fusarium culmorum; test: Fusarium culmorum test on wheat, preventive, greenhouse; assay type: in vivo; conditions: preventive spray on wheat, inoculated one day after treatment, read-out: control (efficacy, disease severity) compared to the untreated check
Experimental: The respective compound was dissolved in 2% dimethyl sulfoxide/acetone and then mixed with water containing an emulsifier to a calibrated spray volume of 30 mL. Each spray solution was poured into a spray bottle for further application.
(§2) To test the preventive activity of a compound, healthy young wheat plants, raised in the greenhouse, were sprayed with the active compound preparation at the stated application rate inside the spray cabinets using hollow cone nozzles. One day after the treatment, the plants were inoculated with a spore suspension containing 2×10^6 Fusarium culmorum inoculum. The inoculated plants were then kept in a greenhouse chamber at 24° C. temperature and 80-90% relative humidity for disease expression.
(§3) A visual assessment of the compound's performance was carried out by rating the disease severity (0 100% scale) on treated plants 3, 7, 10 and 15 days after application. Efficacy (% control) of the compound was calculated by comparing the disease rating in the treatment with the one of the untreated control. The treated plants were also assessed for plant damage by recording symptoms like necrosis, chlorosis and stunting.

[11] = test system: Venturia Inequalis; test: Venturia inequalis (VENTIN) spore growth inhibition in liquid medium, 96-well microtiter plate, OD 600; assay type: cell-based; conditions: spore suspension in PDB liquid medium, 18° C., 15-18 days, OD at 600, read-out: control compared to the untreated check
In short: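 Venturia inequalis spores (10^5 spores/ml suspension) were grown in potato dextrose broth with test compounds dissolved in DMSO, mixing equal volumes of compound solution and spore suspension. Plates were incubated at 18 °C for 15–18 days. Growth was read as OD600 and converted to percent inhibition.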

[12] = test system: Alternaria solani; test: Alternaria solani test in tomato, preventive, greenhouse; assay type: in vivo; conditions: preventive spray on tomato, inoculated one day after treatment, read-out: control (efficacy, disease severity) compared to the untreated check
Experimental: (§4) The respective compound was dissolved in 2% dimethyl sulfoxide/acetone and then mixed with water containing an emulsifier to the calibrated spray volume of 30 mL. Each spray solution was poured into a spray bottle for further application.
as §2, with “tomato” for “wheat”, “after” for “after the”, “0.24×10^6 Alternaria solani” for “2×10^6 Fusarium culmorum”, “22-24°” for “24°”, “90-95%” for “80-90%”
as §3

[13] = test system: Botrytis cinerea; test: Botrytis cinerea test on tomato, preventive, greenhouse; assay type: in vivo; conditions: preventive spray on bean/chili plants (heading: tomato), inoculated one day after treatment, read-out: control (efficacy, disease severity) compared to the untreated check
[14] = test system: Corynespora cassiicola; test: Corynespora cassiicola test on tomato, preventive, greenhouse; assay type: in vivo; conditions: 500 ppm; preventive spray on tomato, inoculated one day after treatment
Experimental: as §4
as §2, with “tomato” for “wheat”, “after” for “after the”, “2.6×10^6 Corynespora cassiicola” for “2×10^6 Fusarium culmorum”, “22-24°” for “24°”, “90-95%” for “80-90%”
as §3

[15] = test system: Phytophthora infestans; test: whole plant or invertebrate; assay type: in vivo, Phytophthora infestans on tomato; conditions: in Solanum lycopersicum, read-out: control (efficacy, disease severity) compared to the untreated check

CC(C)(NC(=O)c1cnc2ccsc2c1)C(F)(F)F [Compound 109, N-(1,1,1-trifluoro-2-methylpropan-2-yl)thieno[3,2-b] pyridine-6-carboxamide]
≥ 70%: inhibition of growth at 300 ppm [1] | inhibition of growth at 300 ppm [2] | inhibition of growth at 300 ppm [3] | inhibition of growth at 300 ppm [4] | inhibition of growth at 300 ppm [5] | inhibition of growth at 300 ppm [6] | inhibition of growth at 300 ppm [7]

C=C(C)CC(C)(Cc1ccccc1F)NC(=O)c1cnc2ccsc2c1 (stereo not shown) [Compound 129, N-(1-(2-fluorophenyl)-2,4-dimethylpent-4-en-2-yl)thieno[3,2-b] pyridine-6-carboxamide]
≥ 70%: inhibition of growth at 300 ppm [3] | inhibition of growth at 300 ppm [8] | inhibition of growth at 300 ppm [4] | pest or weed control at 500 ppm [9]

CCC(C)(Cc1ccccc1)NC(=O)c1cnc2c(ccn2C)c1 (stereo not shown) [Compound 6, 1-methyl-N-(2-methyl-1-phenylbutan-2-yl)-1H-pyrrolo[2,3-b] pyridine-5-carboxamide]
≥ 70%: inhibition of growth at 300 ppm [3] | inhibition of growth at 300 ppm [8] | inhibition of growth at 300 ppm [4] | inhibition of growth at 300 ppm [6] | inhibition of growth at 300 ppm [7]

C=C(C)CC(C)(COc1ccc(F)cc1)NC(=O)c1cnc2c(ccn2C)c1 (stereo not shown) [Compound 121, N-(1-(4-fluorophenoxy)-2,4-dimethylpent-4-en-2-yl)-1-methyl-1H-pyrrolo[2,3-b]pyridine-5-carboxamide]
≥ 70%: inhibition of growth at 300 ppm [8] | inhibition of growth at 300 ppm [4] | pest or weed control at 500 ppm [10]

C=C(C)CC(C)(Cc1ccccc1F)NC(=O)c1cnc2c(ccn2C)c1 (stereo not shown) [Compound 127, N-(1-(2-fluorophenyl)-2,4-dimethylpent-4-en-2-yl)-1-methyl-1H-pyrrolo[2,3-b]pyridine-5-carboxamide]
≥ 70%: inhibition of growth at 300 ppm [8] | inhibition of growth at 300 ppm [4] | inhibition of growth at 300 ppm [11] | pest or weed control at 500 ppm [12] | pest or weed control at 500 ppm [9]

CC(C)CC(C)(Cc1ccccc1)NC(=O)c1cnc2c(ccn2C)c1 (stereo not shown) [Compound 2, N-(2,4-dimethyl-1-phenylpentan-2-yl)-1-methyl-1H-pyrrolo[2,3-b]pyridine-5-carboxamide]
≥ 70%: inhibition of growth at 300 ppm [1] | inhibition of growth at 300 ppm [3] | inhibition of growth at 300 ppm [8] | inhibition of growth at 300 ppm [4] | pest or weed control at 500 ppm [13] | pest or weed control at 500 ppm [12] | pest or weed control at 500 ppm [9]

CC(c1ccccc1F)C(C)(C)NC(=O)c1cnc2c(c1)c(Cl)cn2C (stereo not shown) [Compound 64, 3-chloro-N-(3-(2-fluorophenyl)-2-methylbutan-2-yl)-1-methyl-1H-pyrrolo[2,3-b]pyridine-5-carboxamide]
≥ 70%: inhibition of growth at 300 ppm [1] | inhibition of growth at 300 ppm [11] | pest or weed control at 500 ppm [10] | control (efficacy, disease severity) compared to the untreated check [14] | pest or weed control at 500 ppm [15] | pest or weed control at 500 ppm [9]
